From patent US5153218A, “N,N',N'-trisubstituted-bis-amino-3-methylene-2,4(3H,5H)-furandione inhibitors of acyl-CoA:cholesterol-acyl transferase” (American Home Products Corporation, priority 1991, dated 1992)
Like-named read-outs stand apart in the source and are kept apart here.

Tests used:
[1] = system: acyl-coenzyme A: cholesterol acyltransferase; assay: inhibition of acyl-coenzyme A: cholesterol acyltransferase in vitro (intracellular cholesterol esterification, procedure of Ross et al.); assay type: cell-based; conditions: for percent inhibition at a single concentration: unit assumed
Text: The ability of the compounds of this invention to inhibit acyl-coenzyme A: cholesterol acyltransferase was established in vitro by initially showing that they inhibited intracellular cholesterol esterification by subjecting them to the standard experimental test procedure of Ross et al., J. Biol. Chem. 259 815 (1984).

[2] = system: 14C-Cholesterol Absorption; conditions: po
Protocol: Representative compounds were further tested in vivo to establish the percent inhibition of cholesterol absorption. In this study, normal rats were dosed (oral gavage) with ^14 C-cholesterol plus the test compound. Blood samples taken at six hours and/or intermittently up to twenty-four hours were analyzed and the percent inhibition of cholesterol absorption was calculated.

Plasma Cholesterol = assay: in vivo decrease of plasma cholesterol in cholesterol-cholic acid fed rats; conditions: oral gavage, four days
Protocol: In addition, representative compounds were studied in vivo in cholesterol-cholic acid fed rats to determine the percent decrease of cholesterol in their plasma. This study involves rats which are, prior to testing, trained for one week to eat over a four hour time period each day. Upon initiation of the experiment, the rats diet is supplemented with 1.0 percent cholesterol and 0.25 percent cholic acid. The rats are dosed with the test compound by oral gavage just prior to and just following the four hour feeding period. This is repeated for four days. On the fifth day, the rats are sacrificed and the total plasma cholesterol content is determined. The percent decrease in elevated plasma cholesterol levels is calculated in comparison with normal-fed controls.

Row | SMILES | IC50 [1] | percent inhibition at a single concentration ([1]; Conc. 50 mM (so in the source)) | percent inhibition at a single concentration ([1]; Conc. 25 mM (so in the source)) | further results
1 | CCCCCCCN(Cc1ccc(C(C)(C)C)cc1)C(Nc1ccc(F)cc1)=C1C(=O)COC1=O [Example 1, 3-[[[[4-(1,1-Dimethylethyl)phenyl]methyl]heptylamino][(4-fluorophenyl)amino]methylene]-2,4(3H,5H)-furandione] | 6 µM | 96% | – | % Inhibition of Absorption ([2]; 200 mg/kg): -74%
2 | CCCCCCN(CCCCCC)C(Nc1ccc(F)cc1)=C1C(=O)COC1=O [Example 2, 3-[(Dihexylamino)[(4-fluorophenyl)amino]methylene]-2,4(3H,5H)furandione] | – | 57% | – | –
3 | CCCCCCCN(Cc1ccc(C(C)(C)C)cc1)C(Nc1ccc(OC)cc1OC)=C1C(=O)COC1=O [Example 3] | 4 µM | 90% | – | –
4 | CCCCCCCC/C=C\CCCCCCCCNC(Nc1ccc(OC)cc1OC)=C1C(=O)COC1=O [Example 4, 3-[[(2,4-Dimethoxyphenyl)amino]((Z)-9-octadecenylamino)methylene]-2,4(3H,5H)-furandione] | – | 63% | – | % Inhibition of Absorption ([2]; 200 mg/kg): -14%
5 | CCCCCCCN(Cc1ccc(CC(C)(C)C)cc1)C(Nc1c(OC)cc(OC)cc1OC)=C1C(=O)COC1=O [Example 5, 3-[[[4-(2,2-Dimethylpropyl)phenylmethyl]heptylamino][(2,4,6-trimethoxyphenyl)amino]methylene]-2,4(3H,5H)-furandione] | 11 µM | – | 67% | –
6 | CCCCCCCN(Cc1ccc(OCCC(C)C)cc1)C(Nc1ccc(OC)cc1OC)=C1C(=O)COC1=O [Example 6, 3-[[(2,4-Dimethoxyphenyl)amino][(heptyl)[[4-(3-methylbutoxy)phenyl]methyl]amino]methylene]-2,4(3H,5H)-furandione] | 0.4 µM | – | 99% | –
7 | CCCCCC(C)N(Cc1ccc(CC(C)(C)C)cc1)C(Nc1ccc(OC)cc1OC)=C1C(=O)COC1=O (centres unmarked) [Example 7, 3-[[(2,4-Dimethoxyphenyl]amino][[[4-(2,2-dimethylpropyl)phenyl]methyl](1-methylhexyl)-amino]methylene]2,4(3H,5H)-furandione] | 0.92 µM | – | 98% | % Decrease in Plasma Cholesterol (Plasma Cholesterol; 40 mg/kg): -26%; % Inhibition of Absorption ([2]; 20 mg/kg): -62%
8 | CCCCCC(C)N(Cc1ccc(CC(C)(C)C)cc1)C(Nc1cc(C(C)(C)C)c(O)c(C(C)(C)C)c1)=C1C(=O)COC1=O (centres unmarked) [Example 8] | 0.19 µM | – | 99% | % Decrease in Plasma Cholesterol (Plasma Cholesterol; 20 mg/kg): -71%; % Inhibition of Absorption ([2]; 20 mg/kg): -72%
9 | CCCCCCN(CCCCCC)C(Nc1ccc(OC)cc1OC)=C1C(=O)COC1=O [Example 9, 3-[(Dihexylamino)[(2,4-dimethoxyphenyl)amino]methylene]-2,4(3H,5H)-furandione] | 25 µM | 87% | – | –
10 | CCCCCCCC/C=C\CCCCCCCCNC(Nc1ccc(F)cc1)=C1C(=O)COC1=O [Example 10, 3-[[(4-Fluorophenyl)amino]((Z)-9-octadecenylamino)methylene]2,4(3H,5H)-furandione] | > 30 µM | 61% | – | –
11 | COc1ccc(NC(=C2C(=O)COC2=O)N(CCc2ccccc2)Cc2ccccc2)c(OC)c1 [Example 11, 3-[[(2,4-Dimethoxyphenyl)amino][(2-phenylethyl)(phenylmethyl)amino]methylene]-2,4(3H,5H)-furandione] | > 30 µM | 72% | – | –
12 | CCCCCCN(CCCCCC)C(Nc1ccc(-c2ccccc2)cc1)=C1C(=O)COC1=O [Example 12, 3-[([1,1'-Biphenyl]-4-ylamino)(dihexylamino)methylene]-2,4(3H,5H)-furandione] | 27 µM | 90% | – | –
13 | CCCCCCCN(Cc1ccc(C(C)(C)C)cc1)C(Nc1ccc(-c2ccccc2)cc1)=C1C(=O)COC1=O [Example 13, 3-[([1,1'-Biphenyl]-4-ylamino)[[[4-(1,1-dimethylethyl)phenyl]methyl]heptylamino]methylene]-2,4(3H,5H)-furandione] | 12 µM | 91% | – | –
14 | CCCCCCCN(Cc1ccc(C(C)(C)C)cc1)C(Nc1ccc(F)cc1F)=C1C(=O)COC1=O [Example 14, 3-[[(2,4-Difluorophenyl)amino][[[4-(1,1-dimethylethyl)phenyl]methyl]heptylamino]methylene]-2,4(3H,5H)-furandione] | – | – | 39% | –
15 | CCCCCCCN(Cc1ccc(C(C)(C)C)cc1)C(Nc1c(C)cc(C)cc1C)=C1C(=O)COC1=O [Example 15, 3-[[[[4-(1,1-Dimethylethyl)phenyl]methyl]heptylamino][(2,4,6-trimethylphenyl)amino]methylene]-2,4(3H,5H)-furandione] | – | – | 73% | –
16 | CCCCCCCN(Cc1ccc(CCCCCC)cc1)C(Nc1ccc(C(F)(F)F)cc1)=C1C(=O)COC1=O [Example 16, 3-[[Heptyl[(4-hexylphenyl)methyl]amino][[4-(trifluoromethyl)phenyl]amino]methylene]-2,4(3H,5H)-furandione] | – | – | 56% | –
17 | CCCCCCCN(Cc1ccc(C(C)(C)C)cc1)C(Nc1ccc(Cl)cc1)=C1C(=O)COC1=O [Example 17, 3-[[(4-Chlorophenyl)amino][[[4-(1,1-dimethylethyl)phenyl]methyl]heptylamino]methylene]-2,4(3H,5H)-furandione] | 24 µM | – | 84% | –
18 | CCCCCCCC/C=C\CCCCCCCCN(Cc1ccc(C(C)(C)C)cc1)C(Nc1ccc(F)cc1)=C1C(=O)COC1=O [Example 18, 3-[[[[4-(1,1-Dimethylethyl)phenyl]methyl]((Z)-9-octadecenyl)amino][(4-fluorophenyl)amino]methylene]-2,4(3H,5H)-furandione] | – | – | 44% | –
19 | CCCCCCCN(Cc1ccc(C(C)(C)C)cc1)C(Nc1c(C)cc(N(C)C)cc1C)=C1C(=O)COC1=O [Example 19] | 9.5 µM | – | 77% | –
20 | CCCCCC(C)N(Cc1ccc(C(C)(C)C)cc1)C(Nc1ccc(OC)cc1OC)=C1C(=O)COC1=O (centres unmarked) [Example 20, 3-[[(2,4-Dimethoxyphenyl)amino][[[4-(1,1-dimethylethyl)phenyl]methyl](1-methylhexyl)amino]methylene]-2,4(3H,5H)-furandione] | 1.5 µM | – | 94% | –
21 | CCCCCC(C)N(Cc1ccc(OCCC(C)C)cc1)C(Nc1ccc(OC)cc1OC)=C1C(=O)COC1=O (centres unmarked) [Example 21, 3-[[(2,4-Dimethoxyphenyl)amino][[[4-(3-methylbutoxy)phenyl]methyl](1-methylhexyl)amino]methylene]-2,4(3H,5H)-furandione] | 4.9 µM | – | 97% | % Decrease in Plasma Cholesterol (Plasma Cholesterol; 20 mg/kg): -23%
22 | CCCCCCC(C)N(Cc1ccc(CC(C)(C)C)cc1)C(Nc1cc(C(C)(C)C)c(O)c(C(C)(C)C)c1)=C1C(=O)COC1=O (centres unmarked) [Example 22, 3-[[[3,5-Bis(1,1-dimethylethyl)-4-hydroxyphenyl]amino][[[4-(2,2-dimethylpropyl)phenyl]methyl](1-methylheptyl)amino]methylene]-2,4(3H,5H)-furandione] | 0.07 µM | – | 97% | % Decrease in Plasma Cholesterol (Plasma Cholesterol; 20 mg/kg): -80%
23 | CCCCCCN(Cc1ccc(CC(C)C)cc1)C(Nc1cc(C(C)(C)C)c(O)c(C(C)(C)C)c1)=C1C(=O)COC1=O [Example 23] | – | – | 88% | –
